Reference: US20060063210A1, “Histone deacetylase whole cell enzyme assay” (Methylgene, Inc., priority 2004, published 2006)

Key:
recombinant Sirt1 = target: T1, recombinant Sirt1 (Homo sapiens, UniProt Q96EB6); assay: recombinant Sirt1 enzyme assay in vitro (Fluor-de-Lys-SirT1 substrate); format: biochemical; conditions: for inhibition of recombinant Sirt1 in vitro: TSA up to 10 uM
T1 construct: purchased Biomol
T1 sequence (Q96EB6 1-747): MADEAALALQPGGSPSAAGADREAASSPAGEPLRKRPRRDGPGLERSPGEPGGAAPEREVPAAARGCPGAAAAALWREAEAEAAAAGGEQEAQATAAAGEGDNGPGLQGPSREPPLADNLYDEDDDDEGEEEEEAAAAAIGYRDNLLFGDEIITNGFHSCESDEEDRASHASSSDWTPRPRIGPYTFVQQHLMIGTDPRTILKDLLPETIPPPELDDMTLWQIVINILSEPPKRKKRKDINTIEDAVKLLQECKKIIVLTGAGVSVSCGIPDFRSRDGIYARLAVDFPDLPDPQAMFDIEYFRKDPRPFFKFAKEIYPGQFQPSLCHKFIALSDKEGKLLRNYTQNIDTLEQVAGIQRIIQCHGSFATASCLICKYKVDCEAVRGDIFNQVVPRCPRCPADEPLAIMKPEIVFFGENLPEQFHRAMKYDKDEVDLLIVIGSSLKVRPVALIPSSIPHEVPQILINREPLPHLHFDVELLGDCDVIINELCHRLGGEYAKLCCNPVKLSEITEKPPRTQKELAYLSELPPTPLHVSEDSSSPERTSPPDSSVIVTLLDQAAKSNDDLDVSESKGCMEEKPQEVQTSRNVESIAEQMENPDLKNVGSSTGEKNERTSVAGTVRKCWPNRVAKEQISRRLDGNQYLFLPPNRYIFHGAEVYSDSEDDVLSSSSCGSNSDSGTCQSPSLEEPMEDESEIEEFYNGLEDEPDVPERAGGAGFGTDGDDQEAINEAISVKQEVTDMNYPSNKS
From the text: (§1) Human SirT1, 2, 3 recombinant enzymes were purchased from Biomol (Biomol, Plymouth Meeting, Philadelphia).
(§2) Reaction is read as described in Example 3.

recombinant Sirt2 = target: T2, recombinant Sirt2 (Homo sapiens, UniProt Q8IXJ6); assay: recombinant Sirt2 enzyme assay in vitro (Fluor-de-Lys-SirT2 substrate); format: biochemical; conditions: for inhibition of recombinant Sirt2 in vitro: TSA up to 10 uM; for IC50: 45 minutes, read-out: IC50 against recombinant Sirt2
T2 construct: purchased Biomol
T2 sequence (Q8IXJ6 1-389): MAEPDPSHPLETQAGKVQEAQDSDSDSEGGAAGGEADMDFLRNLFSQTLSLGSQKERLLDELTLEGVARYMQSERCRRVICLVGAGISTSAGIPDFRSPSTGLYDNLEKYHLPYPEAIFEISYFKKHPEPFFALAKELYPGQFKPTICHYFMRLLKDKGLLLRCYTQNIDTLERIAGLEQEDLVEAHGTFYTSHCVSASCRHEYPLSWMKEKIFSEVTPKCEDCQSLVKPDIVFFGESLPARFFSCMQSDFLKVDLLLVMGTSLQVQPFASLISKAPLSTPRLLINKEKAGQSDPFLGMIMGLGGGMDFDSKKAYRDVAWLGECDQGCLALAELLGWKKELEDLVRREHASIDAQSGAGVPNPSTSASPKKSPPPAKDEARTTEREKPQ
From the text: as §1, §2

recombinant Sirt3 = target: T3, recombinant Sirt3 (Homo sapiens, UniProt Q9NTG7); assay: recombinant Sirt3 enzyme assay in vitro (Fluor-de-Lys-SirT2 substrate); format: biochemical
T3 construct: purchased Biomol
T3 sequence (Q9NTG7 1-399): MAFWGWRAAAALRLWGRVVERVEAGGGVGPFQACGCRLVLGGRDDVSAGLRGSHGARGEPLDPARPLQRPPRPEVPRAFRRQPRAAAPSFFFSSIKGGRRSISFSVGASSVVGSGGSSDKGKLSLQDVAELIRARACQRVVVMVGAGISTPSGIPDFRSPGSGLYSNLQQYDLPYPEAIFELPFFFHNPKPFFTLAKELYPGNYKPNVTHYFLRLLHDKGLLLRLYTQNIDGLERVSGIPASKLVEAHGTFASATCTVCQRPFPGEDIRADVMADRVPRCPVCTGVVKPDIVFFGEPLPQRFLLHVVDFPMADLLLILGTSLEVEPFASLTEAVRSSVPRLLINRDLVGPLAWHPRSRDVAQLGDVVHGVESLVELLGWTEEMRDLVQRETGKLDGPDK
From the text: as §1, §2

SirT1 (HCT116 cells) = target: T4, SirT1 (HCT116 cells) (Homo sapiens, UniProt Q96EB6); assay: whole cell sirtuin (SirT1) activity in HCT116 cells with Fluor-de-Lys-SirT1 substrate; format: cell-based; conditions: HCT116 cells; for inhibition of whole cell SirT1 activity: 1.5 hours pre-incubation, Fluor-de-Lys-SirT1 500 uM
T4 construct: endogenous in cells; host or cells: HCT116
T4 sequence (Q96EB6 1-747): T1 sequence (Q96EB6 1-747)
From the text: Cultured cells (HCT116) were trypsinized and counted by trypan blue exclusion. Live cells (2×10^5) were distributed to each well of the 96-well plate. […] Independently, we fixed concentrations of either Fluor-de-Lys-SirT1 substrate or Fluor-de-Lys-SirT2 in whole cells and analyzed the effect of exogeneous NAD+ concentration on whole cell sirtuin activity (FIG. 7b). […] Therefore the reading was done immediately after stopping.
Cultured HCT116 cells were counted and distributed to each well of the 96-well plate. […] After addition of Sirtuin substrate (Fluor-de-Lys-SirT1, 500 uM) or HDAC substrate Boc-Lys(Ac)-AMC (300 uM), the cells are further incubated for an additional 2 hours. Reaction was stopped and read as described in Examples 3 and 6. […] This observation is consistent with our finding in Example 7 that TSA can not inhibit class III (Sirtuins) in vitro.

[1] = target: T5, SirT1 (mouse white blood cells) (Mus musculus, UniProt Q923E4); assay: ex vivo whole cell Sirt1 activity in mouse white blood cells; format: cell-based; conditions: 90 minute incubation, 200 uM Fluor-de-Lys Sirt1
T5 construct: from tissue; host or cells: mouse white blood cells
T5 sequence (Q923E4 1-737): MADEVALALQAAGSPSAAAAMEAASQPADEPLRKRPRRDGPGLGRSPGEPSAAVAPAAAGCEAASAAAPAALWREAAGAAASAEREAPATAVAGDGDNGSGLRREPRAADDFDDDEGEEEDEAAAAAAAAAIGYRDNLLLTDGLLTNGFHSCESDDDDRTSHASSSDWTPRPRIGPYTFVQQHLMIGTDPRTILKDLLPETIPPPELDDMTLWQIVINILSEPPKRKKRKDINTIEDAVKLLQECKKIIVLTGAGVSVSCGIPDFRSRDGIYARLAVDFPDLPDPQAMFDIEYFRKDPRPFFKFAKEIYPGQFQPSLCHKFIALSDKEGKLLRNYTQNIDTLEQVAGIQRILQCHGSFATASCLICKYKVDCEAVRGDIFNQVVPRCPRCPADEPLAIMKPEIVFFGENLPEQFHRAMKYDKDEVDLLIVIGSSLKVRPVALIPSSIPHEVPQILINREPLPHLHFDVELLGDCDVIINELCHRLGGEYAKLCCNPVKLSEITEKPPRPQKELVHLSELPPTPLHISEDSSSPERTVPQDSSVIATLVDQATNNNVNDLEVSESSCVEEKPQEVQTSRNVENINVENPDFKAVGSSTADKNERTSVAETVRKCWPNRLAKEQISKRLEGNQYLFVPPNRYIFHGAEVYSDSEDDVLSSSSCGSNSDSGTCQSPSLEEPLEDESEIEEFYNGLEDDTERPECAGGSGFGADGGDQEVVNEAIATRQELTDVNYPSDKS
Method: Mouse blood was collected in heparin tubes. Erythrocytes were lysed with five volumes of Erythrocyte Lysis buffer (EL, Qiagen Canada Inc, Mississauga, Ontario). White blood cells were recovered by centrifugation (400×g for 5 min), washed and resuspended in RPMI (+10% FBS), then counted. […] After 90 minute incubation, reaction was stopped with one volume of assay buffer (50 mM Tris-Ci pH 8.0, 137 mM NaCl, 2.7 mM KCl, 1 mM MgCl2) supplemented with 1× Developer II (BioMol, Plymouth Meeting, Philadelphia) and 1% NP40.

HDAC (HCT116 cells) = assay: whole cell deacetylase (HDAC) assay in HCT116 cells with Boc-Lys(Ac)-AMC; format: cell-based, human
Method: (§3) Freshly trypsinized cells were dispensed into 96-well black Costar E1A/RIA plates (Corning Inc., Corning, N.Y.). Small molecule substrate Boc-Lys(Ac)-AMC (Bachem Biosciences Inc., King of Prussia, Philadelphia) was added to cell suspension with the final concentration of 300 uM. Cells were placed in 37° C. incubator with 5% CO2 for 90 minutes. Reaction was stopped by adding a freshly prepared Flouor-de-Lys™ deleveloper (Biomol, Plymouth Meeting, Philadelphia) with 1 uM TSA (Biomol) in assay buffer (25 mM Tris, HCl pH8.0, 137 mM NaCl, 2.7 mM KCl, 1 mM MgCl2) plus 1% NP-40. With the presence of 1% NP-40, both excellular and intracellular HDAC activity was measured in cultured cells altogether.
(§4) HDAC enzyme assay in intact cells was carried out as described in Example 3.
Cultured HCT116 cells were counted and distributed to each well of the 96-well plate. […] After addition of Sirtuin substrate (Fluor-de-Lys-SirT1, 500 uM) or HDAC substrate Boc-Lys(Ac)-AMC (300 uM), the cells are further incubated for an additional 2 hours. Reaction was stopped and read as described in Examples 3 and 6.

HDAC (A549 cells) = assay: whole cell deacetylase (HDAC) assay in A549 cells with Boc-Lys(Ac)-AMC; format: cell-based, human; conditions: pre-incubated with inhibitors 16 hours, mean of at least 2 experiments
Method: as §3, §4

HDAC (Du145 cells) = assay: whole cell deacetylase (HDAC) assay in Du145 cells with Boc-Lys(Ac)-AMC; format: cell-based, human; conditions: pre-incubated with inhibitors 16 hours, mean of at least 2 experiments
Method: as §3, §4

HDAC (293T cells) = assay: whole cell deacetylase (HDAC) assay in 293T cells with Boc-Lys(Ac)-AMC; format: cell-based, human; conditions: pre-incubated with inhibitors 16 hours, mean of at least 2 experiments
Method: as §3, §4

HDAC (Jurkat T cells) = assay: whole cell deacetylase (HDAC) assay in Jurkat T cells with Boc-Lys(Ac)-AMC; format: cell-based, human; conditions: pre-incubated with inhibitors 16 hours, mean of at least 2 experiments
Method: as §3, §4

HDAC (Panc-1 cells) = assay: whole cell deacetylase (HDAC) assay in Panc-1 cells with Boc-Lys(Ac)-AMC; format: cell-based, human; conditions: pre-incubated with inhibitors 16 hours, mean of at least 2 experiments
Method: as §3, §4

For `Cc1ccc(C(=O)Nc2ccc(S(=O)(=O)O)c3cc(S(=O)(=O)O)cc(S(=O)(=O)O)c23)cc1NC(=O)c1cccc(NC(=O)Nc2cccc(C(=O)Nc3cc(C(=O)Nc4ccc(S(=O)(=O)O)c5cc(S(=O)(=O)O)cc(S(=O)(=O)O)c45)ccc3C)c2)c1` [suramin], which “inhibition of recombinant Sirt1 in vitro” value (recombinant Sirt1) is on record?
Its value is “inhibits”.

What about the “inhibition of recombinant Sirt2 in vitro” value (recombinant Sirt2) of the same molecule?
The value was “inhibits”.

And the IC50 (recombinant Sirt2; substrate FldSirt2)?
The IC50 was 14 µM.

And the “inhibition of recombinant SirT3 in vitro” value (recombinant Sirt3)?
Its value is “inhibits”.

What about the IC50 (recombinant Sirt3; substrate FldSirt2, 45 minutes, read-out: IC50 against recombinant Sirt3) of the same molecule?
The IC50 was 575 µM.

And the “inhibition of whole cell SirT1 activity” value (SirT1 (HCT116 cells))?
The value was “inihibits whole cell SirT1 activity in a dose-dependent manner”.

What about the “inhibition of SirT1 in whole mouse white blood cells” value [1] of the same molecule?
The value was “inhibits SirT1 enzymes in whole white blood cells”.

What does the source list for `Oc1ccc(C=Cc2cc(O)cc(O)c2)cc1` [Resveratrol]?
activation of recombinant Sirt1 in vitro (recombinant Sirt1): can activate Sirt1 enzymes in vitro in a dose dependent manner; EC50 (recombinant Sirt2; substrate FldSirt2, activation, read-out: EC50 to activate recombinant Sirt2 in vitro): 912 µM; EC50 (recombinant Sirt3; substrate FldSirt2, activation, read-out: EC50 to activate recombinant Sirt3 in vitro): > 2000 µM; activation of whole cell sirtuin (SirT1) activity (SirT1 (HCT116 cells); 1.5 hour pre-incubation): could activate whole cell sirtuin (SirT1) activity in a dose-dependent manner

`CC(/C=C/C(=O)NO)=C\[C@@H](C)C(=O)c1ccc(N(C)C)cc1` [TSA, trichostatin A] was tested. Which “inhibition of whole cell HDAC activity” value (HDAC (HCT116 cells); Boc-Lys(Ac)-AMC 300 uM) did it give?
Its value is “could inhibit whole cell HDAC activity”.

What about the “inhibition of recombinant Sirt1 in vitro” value (recombinant Sirt1) of the same molecule?
Its value is “does not inhibit”.

What about the IC50 (recombinant Sirt1; substrate FldSirt1, 45 minutes, read-out: IC50 against recombinant Sirt1) of the same molecule?
Its IC50 is > 10 µM.

And the “inhibition of recombinant Sirt2 in vitro” value (recombinant Sirt2)?
The value was “does not inhibit”.

What about the IC50 (recombinant Sirt2; substrate FldSirt2) of the same molecule?
Its IC50 is > 10 µM.

And the “inhibition of whole cell SirT1 activity” value (SirT1 (HCT116 cells))?
Its value is “not”.

How did the IC50 (HDAC (A549 cells)) turn out when `Nc1ccccc1NC(=O)c1ccc(CNC(=O)OCc2cccnc2)cc1` [MS-275] was run?
The IC50 was 0.4 µM.

What about the IC50 (HDAC (Du145 cells)) of the same molecule?
Its IC50 is 0.3 µM.

What about the IC50 (HDAC (HCT116 cells); pre-incubated with inhibitors 16 hours, mean of at least 2 experiments) of the same molecule?
Its IC50 is 3 µM.

And the IC50 (HDAC (293T cells))?
Its IC50 is 2 µM.

And the IC50 (HDAC (Jurkat T cells))?
Its IC50 is 0.3 µM.

And the IC50 (HDAC (Panc-1 cells))?
Its IC50 is 0.5 µM.
